Values of other authors as cited in US20220313684A1, “PHARMACEUTICAL COMPOSITION COMPRISING IRINOTECAN FREE BASE FOR ORAL ADMINISTRATION” (DAE HWA PHARMA. CO., LTD., priority 2019, published 2022).

Settings: oral administration of irinotecan; reported (EP 2328557)

bioavailability upon oral administration: 9%
SMILES: CCc1c2c(nc3ccc(OC(=O)N4CCC(N5CCCCC5)CC4)cc13)-c1cc3c(c(=O)n1C2)COC(=O)[C@]3(O)CC [irinotecan, (S)-4,11-diethyl-3,4,12,14-tetrahydro-4-hydroxy-3,14-dioxo-1H-pyrano[3′,4′:6,7]-indolizino[1,2-b]quinolin-9-yl [1,4′bipiperidine]-1′-carboxylate]
